Tests used:
[1] = tested on: larval zebrafish; test: Light/dark preference (phototaxis) assay; format: in vivo, Zebrafish (Danio rerio); conditions: for light/dark preference: last two minutes of each trial, last four trials
Experimental: Following this, whether the effects of AS1 were restricted to somatosensation or were generalizable to other aversive stimuli were tested. Thus, the effects of AS1 on light/dark preference were tested. Zebrafish larvae prefer white light environments to dark environments and this preference is inhibited by anxiolytics, analagous to studies in rodents (Lau et al., Proc. Natl. Acad. Sci. U.S.A 2011; 108:2581-2586; Burgess et al., Curr. Biol. 2010; 20:381-386). To measure light/dark preference, larval zebrafish were placed in a square arena and given the choice between a bright white light and total darkness, and the number of larvae on each side was quantified at 30 second intervals. Five 4-minute trials were performed, where the light and dark sides of the arena were reversed between trials. […] Given the precise control over stimulus luminosity in this assay, the effects of altering the intensity of the dark stimulus were explored next. In this gradient version of the phototaxis assay, larval zebrafish were given the choice between a bright white environment and one of six potential shades of darkness, ranging from light gray to solid black. […] This implies that the valence of non-painful noxious stimuli is precisely encoded in an intensity-dependent manner, and that AS1 exerts its effects in proportion to the intensity of the stimulus.
Light/dark preference (phototaxis) assay. In the light/dark preference assay, randomly-selected 6 dpf larval zebrafish (N of 30 to 40) were carefully pipetted onto a 10 cm square petri dish using a 10 mL pipette pump equipped with a glass wide-bored Pasteur pipet. As much E2 media as possible was carefully removed using the same pipet. For single incubation experiments, 30 mL of 1× solutions of the control or test chemical was added to each petri dish, and fish were incubated for 10 minutes at 28.5° C. For double incubation experiments, 15 mL of 1× solutions containing control (DMSO) or test chemicals was added to the larvae-containing petri dish. Following a ten-minute incubation period, 15 mL of the second incubation solution (1× control or test chemical +/−2× AS1) was added to the petri dish, and the fish were incubated for a second ten minute block. The final concentration of DMSO in all solutions was 1%. In all double-incubation experiments, the final concentration of AS1 was 2.5 μM. These petri dishes were then positioned over a horizontally-oriented computer monitor displaying a PowerPoint presentation. For standard light/dark preference assays, a blank white slide was initially presented for one minute, after which the presentation would automatically advance to a slide in which half of the display was black. The petri dish with larvae was positioned such that exactly half was directly over the dark side, and the other half was directly over the light side. After four minutes, the presentation automatically advanced to a slide in which the black and white halves switched places. A total of five four-minute trials, with the dark/light halves automatically switching position between trials, were recorded. For the gradient phototaxis assay, experiments were performed identically, except that the “dark” half of the powerpoint presentation was one of six shades of gray.
In all experiments, an initial still frame of video was taken during the minute where the blank slide was presented in order to quantify the total number of fish in the experiment. Following this, still frames were taken at 30 second intervals for each trial ([…]), and the number of fish present in the light half of the arena were counted. To generate the graphs that looked at swimming patterns over time in a trial (e.g., FIG. 3D), the average percentage of fish in the light at each time point (T=0, T=30, etc.) was calculated across all five trials. […]

[2] = tested on: larval zebrafish; test: Thermal preference assay (28.5° C. vs 37.5° C.), non-sensitized; format: in vivo, Zebrafish (Danio rerio)
Experimental: Thermal preference assay. […] Once an entire plate was loaded with fish, the appropriate incubation solution was added. […] Following incubation in all experiments, the choice testing plate was transported to a dual solid-state heat/cool plate (AHP-1200° C. P; Teca) and centered such that half of each arena was positioned over each side of the heat/cool plate. […] Locomotor behavior was recorded using a Canon high-definition video camcorder suspended at a fixed position above the choice testing plate. Each trial was four minutes in duration.
For single-incubation assays (e.g. testing single chemicals), larval zebrafish were caught in 100 μL E2 media and 100 μL of the control (2% DMSO) or test chemical at 2× concentration was added to each well to achieve the final desired concentration. […] The final DMSO concentration in all solutions was 1%.

[3] = 28.5 vs 37.5° C., dose-response 0-5 μM

SMILES: CC(C)c1ccc(C(=O)Nc2ccncc2)cc1 [AS1, 4-propan-2-yl-N-pyridin-4-ylbenzamide]
- light/dark preference ([1]; 1 μM AS1): significantly prefer the light side of the arena
- gradient phototaxis: choice between bright white (shade 1) and darker shades 2-7 ([1]; 2.5 μM AS1): increasingly prefer the contrasting dark shade
- light/dark preference ([1]; 2.5 μM AS1): significantly prefer the dark
- light/dark preference, dose dependence ([1]; AS1-treated vs vehicle-treated larvae): reversed light/dark preference in a dose-dependent manner
- zone-dependent locomotor activity (swimming velocity) ([2]; 28.5 vs 37.5° C. zones, compared to vehicle-treated larvae): inverted zone-dependent locomotor activity
- concentration that eliminates preference for either zone [2, 3]: 1.25 µM
- concentrations that induce preference for the 37.5° C. zone [2, 3]: > 2.5 µM
- preference in acute heat aversion ([2]; 28.5° vs 37.5° C., 5 μM AS1 (highest dose)): evoked strong preference for the nociceptive stimulus
- Reverses 28.5° C. Choice? ([2]; temperature preference 28.5° C. vs 37.5° C., larval zebrafish): Yes
